# Experiments:
# Format in all cases: in vivo, C57BL/6 mice
# E.G7-OVA cells [1] = experiment: 51Cr release CTL assay, splenocytes of OVA-immunized mice stimulated in vitro with mitomycin C-treated E.G7-OVA cells; details: 1.25 μg QS-21 alone (suboptimal dose), with 25 μg OVA s.c. days 1, 15, 29; splenocytes day 42; FIG. 1
# Description: C57BL/6 mice (5 per group, female, 8–10 weeks of age) were immunized by subcutaneous route at days 1, 15, and 29. The vaccines were 25 μg OVA antigen plus the indicated doses of adjuvant in a total volume of 0.2 ml phosphate-buffered saline. […] They were stimulated in vitro for 6 days with mitomycin C-treated E.G7-OVA cells and then used in a standard ^51Cr release CTL assay. E.G7-OVA cells (loaded with ^51Cr) were used as target cells. The background lysis of EL4 cells (not transfected by OVA) was subtracted from the lysis of E.G7-OVA cells to obtain a percent (%) antigen-specific lysis.
# E.G7-OVA cells [2] = experiment: 51Cr release CTL assay, splenocytes of OVA-immunized mice stimulated in vitro with denatured OVA; details: 1.25 μg QS-21 alone (suboptimal dose), with 25 μg OVA, FIG. 2
# Description: C57BL/6 mice (5 per group, female, 8–10 weeks of age) were immunized by subcutaneous route at days 1, 15, and 29. The vaccines were 25 μg OVA antigen plus the indicated doses of adjuvant in a total volume of 0.2 ml phosphate-buffered saline. […] (Weiner, et al., Proc. Natl. Acad. Sci. 94:10833 (1997).) Splenocytes were removed at day 42 for use as effector cells in the CTL assay. They were stimulated in vitro for 6 days with mitomycin C-treated E.G7-OVA cells and then used in a standard ^51Cr release CTL assay. E.G7-OVA cells (loaded with ^51Cr) were used as target cells. The background lysis of EL4 cells (not transfected by OVA) was subtracted from the lysis of E.G7-OVA cells to obtain a percent (%) antigen-specific lysis.
# Splenocytes from mice immunized as described in FIG. 1 were used in a CTL assay. Splenocytes were stimulated in vitro with denatured OVA for six days prior to use in the CTL assay. The assay was carried out against E.G7-OVA cells as described in Example 1.
# OVA = experiment: Serum IgG1 and IgG2a titers to OVA by EIA; details: sera day 42
# Description: Serum titers to OVA were determined by EIA on sera collected on day 42 from the mice immunized as described in Example 1. IgG subclass IgG1 and IgG2a titers were determined for individual mice (5 mice per group) and are plotted as a geometric mean titer.
substance,measurement,setting,value
QS-21,antigen-specific lysis (CTL),E.G7-OVA cells [1],no lysis
same,antigen-specific lysis (CTL),E.G7-OVA cells [2],no lysis
same,"OVA-specific IgG1 titer, enhancement over the unadjuvanted group","OVA; 10 μg QS-21 alone, geometric mean titer, among the highest groups, FIG. 3",~10 fold
same,OVA-specific IgG2a response,OVA; any QS-21 dose used alone,not detected

# From patent publication US7049302B1, “Compositions of CPG and saponin adjuvants and uses thereof” (Antigenics Inc., priority 1998, dated 2006)
